Reference: paper PMC7306898, “Concentration-Dependent Activity of Hydromethylthionine on Clinical Decline and Brain Atrophy in a Randomized Controlled Trial in Behavioral Variant Frontotemporal Dementia” (Journal of Alzheimer's Disease, 2020)
Like-named read-outs stand apart in the source and are kept apart here.

What was measured:
bvFTD patients [1] = experiment: Addenbrookes Cognitive Examination – Revised (ACE-R), 52-week Phase III trial TRx-237-007; assay type: in vivo, human
From the text: (§1) The study was designed as a 52-week Phase III, randomized, controlled, double-blind, parallel-group trial conducted between May 2013 and February 2016 at 70 sites in Canada, United States, Australia, Asia, and Europe. Eligible patients had to be younger than 80 years of age with a diagnosis of bvFTD according to criteria revised by the International bvFTD Criteria Consortium [[1, 50]], with Mini-Mental Status Examination (MMSE) score greater than or equal to 20 at screening. In order to limit inclusion of bvFTD phenocopy cases, there was an additional requirement that patients had to meet the criterion of having definite brain atrophy in frontal and/or temporal lobes scoring 2 or more on a scale previously developed by Kipps et al.. Concomitant use of acetylcholinesterase inhibitors (AChEIs) or memantine (or both) was permitted provided this was at a stable dose for at least 18 weeks before randomization to minimize any potential early symptomatic effects of these treatments. Concomitant use of antidepressant, antipsychotic (except clozapine or olanzapine), and sedative medications was also permitted at stable doses where clinically feasible. Each patient had one or more study partners participate with them in the trial as informants. […] A detailed list of inclusion and exclusion criteria is in the protocol provided in the Supplementary Material. […]
(§2) The two doses were provided in identical blister packages as visually identical oral tablets to be taken for up to 52 weeks. […] Other outcomes included: Modified Alzheimer’s Disease Cooperative Study – Clinical Global Impression of Change (Modified-CGIC) determined by a third independent rater; Frontotemporal Dementia Rating Scale (FRS); MMSE (from MMSE items incorporated into ACE-R); Addenbrookes Cognitive Examination – III (a revised version of ACE-R which excludes MMSE items subject to copyright restrictions); change in brain volume measured by MRI in frontal and temporal lobes (FTV) and lateral ventricles (LVV); and the effect of hydromethylthionine in patients with known genetic mutations associated with bvFTD. […]

bvFTD patients [2] = experiment: Functional Activities Questionnaire (FAQ), 52-week Phase III trial; assay type: in vivo, human
From the text: as §1, §2

bvFTD patients [3] = experiment: UPDRS Part III motor safety outcome, 52-week Phase III trial; assay type: in vivo, human
Procedure: The primary analyses were specified as a mixed model, repeated-measures analysis with an unstructured covariance matrix and no imputation for missing data. The model included visit (three levels corresponding to assessments at weeks 16, 32, and 52), treatment group (two levels, 4 mg or 100 mg twice a day), a visit by treatment group interaction term, use of AD-labelled medications (two levels, using or not using), geographic region (three levels: North America, Asia/Australia, Europe), and baseline value of the variable analyzed. The individual comparisons were implemented through contrasts. The Bonferroni-Holm correction was used to take account of multiplicity arising from alternative co-primary outcomes (FAQ and whole brain atrophy). We used the same method for all secondary analyses in predefined gated sequences such that no further adjustment of alpha (0.05) was needed.
Blood samples for assessment of parent MT, N-desmethyl MT, and total MT (sum of parent MT and a labile LMT conjugate), were collected from each patient on the first treatment visit (two samples: pre-dose and approximately 3.5 h after the dose) and at each subsequent on-treatment visit. […] MT levels in plasma were measured using liquid chromatography-tandem mass spectrometry assay. […] Model development and estimation of steady state maximum plasma concentration (Cmax,ss) were determined independently by the Institute of Clinical Pharmacodynamics (ICPD, NY, USA). Cmax,ss estimates using a model validated in Phase I studies were based on in-clinic plasma concentration data obtained on Day 1 when the dose-sampling interval was accurately recorded. […] Change in ACE-R, ACE-III, FAQ, MMSE, Modified-CGIC, FRS, whole brain volume (WBV), lateral ventricular volume (LVV), and frontotemporal volume (FTV), as well as UPDRS Part III, were expressed as a function of Cmax,ss estimates grouped into four groups described in the results section. […]

[4] = Population PK: plasma-modeled parent MT Cmax,ss; assay type: in vivo, human; conditions: for Cmax: both sexes, human, plasma, oral
Procedure: Blood samples for assessment of parent MT, N-desmethyl MT, and total MT (sum of parent MT and a labile LMT conjugate), were collected from each patient on the first treatment visit (two samples: pre-dose and approximately 3.5 h after the dose) and at each subsequent on-treatment visit. The protocol specified that PK plasma sampling was to be conducted only at sites with adequate facilities (i.e., a refrigerated centrifuge and adequate capability to freeze samples reliably). Blinded analyses were conducted at the University of Aberdeen GLP Test Facility. MT levels in plasma were measured using liquid chromatography-tandem mass spectrometry assay. The method was validated for use in the Phase III studies over the range 0.2 to 10 ng/ml. […] Model development and estimation of steady state maximum plasma concentration (Cmax,ss) were determined independently by the Institute of Clinical Pharmacodynamics (ICPD, NY, USA). Cmax,ss estimates using a model validated in Phase I studies were based on in-clinic plasma concentration data obtained on Day 1 when the dose-sampling interval was accurately recorded. The percentage of patients with Day 1 exposure levels below the lower calibration limit of the assay was used to define a proxy for placebo in post-hoc binary statistical comparisons of patients with low and high exposure to the drug with a view to informing the design of a future placebo-controlled trial. Change in ACE-R, ACE-III, FAQ, MMSE, Modified-CGIC, FRS, whole brain volume (WBV), lateral ventricular volume (LVV), and frontotemporal volume (FTV), as well as UPDRS Part III, were expressed as a function of Cmax,ss estimates grouped into four groups described in the results section. Cmax,ss values outside 3x the interquartile range were excluded from determination of concentration-response relationships, but were included in inferential statistical analyses.

CYP2B6 = test system: CYP2B6; design: method as in Investigator's Brochure; conditions: ref Investigator's Brochure; cited from earlier work
[5] = 8 mg/day (n = 110), modeled change from baseline at 52 weeks, MITT
[6] = 8 mg/day, plasma levels above vs below […] threshold
[7] = 200 mg/day (n = 104) vs 8 mg/day, 52 weeks, MITT

## CN(C)c1ccc2c(c1)Sc1cc(N(C)C)ccc1N2 [hydromethylthionine, leuco-methylthioninium bis(hydromethanesulphonate)]
bvFTD patients [1]; [5]
  ACE-R: Decline±SEM for LMTM 8 mg/day group: –9.98±1.39
bvFTD patients [1]; [6]
  reduction in decline on the ACE-R scale: 45%
bvFTD patients [1]; [7]
  ACE-R: Difference±SEM from LMTM 8 mg/day for 200 mg/day: –0.49±2.10
bvFTD patients [2]; [5]
  FAQ: Decline±SEM for LMTM 8 mg/day group: 5.51±0.55
bvFTD patients [2]; [6]
  reduction in decline on the FAQ scale: 46%
bvFTD patients [2]; [7]
  FAQ: Difference±SEM from LMTM 8 mg/day for 200 mg/day: –0.39±0.84
bvFTD patients [3]; 8 mg/day (n = 110), modeled change from baseline at 52 weeks
  UPDRS – part III: Decline±SEM for LMTM 8 mg/day group: 3.90±1.06
bvFTD patients [3]; [6]
  reduction in decline, UPDRS: 75%
bvFTD patients [3]; 200 mg/day (n = 104) vs 8 mg/day, 52 weeks
  UPDRS – part III: Difference±SEM from LMTM 8 mg/day for 200 mg/day: –1.40±1.61
[4]; 200 mg/day
  Plasma-modeled parent MT Cmax,ss, Range: 6.800 to 14.235 ng/mL
[4]; 80 patients receiving 200 mg/day
  plasma levels at 200 mg/day relative to the highest level seen at 8 mg/day: 16 fold
[4]; 8 mg/day, 8 mg/day – Group 1, read-out: Plasma-modeled parent MT Cmax,ss, Mean (SD)
  Cmax: 0.321 ng/mL
[4]; 8 mg/day, 8 mg/day – Group 1, read-out: Plasma-modeled parent MT Cmax,ss, Range
  Cmax: 0.281 to 0.346 ng/mL
[4]; 8 mg/day, 8 mg/day – Group 2, read-out: Plasma-modeled parent MT Cmax,ss, Mean (SD)
  Cmax: 0.355 ng/mL
[4]; 8 mg/day, 8 mg/day – Group 2, read-out: Plasma-modeled parent MT Cmax,ss, Range
  Cmax: 0.346 to 0.372 ng/mL
[4]; 8 mg/day, 8 mg/day – Group 3, read-out: Plasma-modeled parent MT Cmax,ss, Mean (SD)
  Cmax: 0.387 ng/mL
[4]; 8 mg/day, 8 mg/day – Group 3, read-out: Plasma-modeled parent MT Cmax,ss, Range
  Cmax: 0.373 to 0.409 ng/mL
[4]; 8 mg/day, 8 mg/day – Group 4, read-out: Plasma-modeled parent MT Cmax,ss, Mean (SD)
  Cmax: 0.47 ng/mL
[4]; 8 mg/day, 8 mg/day – Group 4, read-out: Plasma-modeled parent MT Cmax,ss, Range
  Cmax: 0.413 to 0.583 ng/mL
[4]; 200 mg/day, read-out: Plasma-modeled parent MT Cmax,ss, Mean (SD)
  Cmax: 9.04 ng/mL
[4]; 200 mg/day, read-out: Plasma-modeled parent MT Cmax,ss, Range
  Cmax: 6.8 to 14.2 ng/mL
CYP2B6
  induction of CYP2B6: w eak in ducer
